Tested on: tobacco budworm (Heliothis virescens [Fabricius])
Assay: surface-treated diet test against the tobacco budworm
Type: in vivo
Conditions: tobacco budworm second instar larvae, surface-treated diet, 0.25 millimoles of candidate insecticide on the surface of the diet, five-day exposure; for Percent Mortality: compared to total number of insects infested; for Percent Growth Inhibition: inhibition of insect weight relative to untreated controls
Description: Candidate insecticides were evaluated for activity against the tobacco budworm (Heliothis virescens [Fabricius]) in a surface-treated diet test.
In this test one mL of molten (65–70° C.) wheat germ-based artificial diet was pipetted into each well of a four by six (24 well) multi-well plate (ID# 430345-15.5 mm dia.×17.6 mm deep; Corning Costar Corp., One Alewife Center, Cambridge, Mass. 02140). The diet was allowed to cool to ambient temperature before treatment with candidate insecticide.
For a determination of insecticidal activity, solutions of the candidate insecticides were prepared for testing using a Packard 204DT Multiprobe® Robotic System (Packard Instrument Company, 800 Research Parkway, Meriden, Conn. 06450), in which the robot first diluted a standard 50 millimolar DMSO solution of candidate insecticide with a 1:1 water/acetone solution (V/V) in a ratio of 1:7 stock solution to water/acetone. The robot subsequently pipetted 40 microliters of the so-prepared solution onto the surface of the diet in each of three wells in the 24 multi-well plate. The process was repeated with solutions of seven other candidate insecticides. Once treated, the contents of the multi-well plate were allowed to dry, leaving 0.25 millimoles of candidate insecticide on the surface of the diet, or a concentration of 0.25 millimolar. Appropriate untreated controls containing only DMSO on the diet surface were also included in this test. […]
In each well of the test plate was placed one second instar tobacco budworm larvea, each weighing approximately five milligrams. After the larvae were placed in each well, the plate was sealed with clear polyfilm adhesive tape. The tape over each well was perforated to ensure an adequate air supply. The plates were then held in a growth chamber at 25° C. and 60% relative humidity for five days (light 14 hours/day).
After the five-day exposure period insecticidal activity for each rate of application of candidate insecticide was assessed as percent inhibition of insect weight relative to the weight of insects from untreated controls, and percent mortality when compared to the total number of insects infested.
The test compounds of formula I are identified by numbers that correspond to those in Table 1.
These tests were conducted with 0.25 millimoles of candidate insecticide on the surface of the diet.

## O=C(Nc1cc(F)ccc1F)OC(c1ccc(C(F)(F)F)cc1)C1CCN(Cc2ccc(Oc3ccccn3)cc2)CC1 (stereo not drawn) [Compound 239]
  Percent Mortality: 100%
  Percent Growth Inhibition: 100%

## O=C(Nc1cc(F)cc(F)c1)OC(c1ccc(C(F)(F)F)cc1)C1CCN(Cc2ccc(Oc3ccccn3)cc2)CC1 (stereo not drawn) [Compound 240]
  Percent Mortality: 100%
  Percent Growth Inhibition: 100%

## O=C(Nc1c(F)cccc1F)OC(c1ccc(C(F)(F)F)cc1)C1CCN(Cc2ccc(Oc3ccccn3)cc2)CC1 (stereo not drawn) [Compound 241]
  Percent Mortality: 100%
  Percent Growth Inhibition: 100%

## O=C(Nc1ccc(F)c(F)c1F)OC(c1ccc(C(F)(F)F)cc1)C1CCN(Cc2ccc(Oc3ccccn3)cc2)CC1 (stereo not drawn) [Compound 242]
  Percent Mortality: 100%
  Percent Growth Inhibition: 100%

## O=C(Nc1c(F)c(F)c(F)c(F)c1F)OC(c1ccc(C(F)(F)F)cc1)C1CCN(Cc2ccc(Oc3ccccn3)cc2)CC1 (stereo not drawn) [Compound 243]
  Percent Mortality: 100%
  Percent Growth Inhibition: 100%

## O=C(Nc1cccc(C(F)(F)F)c1)OC(c1ccc(C(F)(F)F)cc1)C1CCN(Cc2ccc(Oc3ccccn3)cc2)CC1 (stereo not drawn) [Compound 244]
  Percent Mortality: 100%
  Percent Growth Inhibition: 100%

## O=C(Nc1ccc(C(F)(F)F)cc1)OC(c1ccc(C(F)(F)F)cc1)C1CCN(Cc2ccc(Oc3ccccn3)cc2)CC1 (stereo not drawn) [Compound 245]
  Percent Mortality: 100%
  Percent Growth Inhibition: 100%

## O=C(Nc1ccc(C(F)(F)F)cc1)OC(c1ccc(OC(F)(F)F)cc1)C1CCN(Cc2ccc(Oc3ccccn3)cc2)CC1 (stereo not drawn) [Compound 246]
  Percent Mortality: 100%
  Percent Growth Inhibition: 100%

## O=C(Nc1ccc(Cl)c(C(F)(F)F)c1)OC(c1ccc(C(F)(F)F)cc1)C1CCN(Cc2ccc(Oc3ccccn3)cc2)CC1 (stereo not drawn) [Compound 247]
  Percent Mortality: 100%
  Percent Growth Inhibition: 100%

## O=C(Nc1cc(C(F)(F)F)cc(C(F)(F)F)c1)OC(c1ccc(C(F)(F)F)cc1)C1CCN(Cc2ccc(Oc3ccccn3)cc2)CC1 (stereo not drawn) [Compound 248]
  Percent Mortality: 100%
  Percent Growth Inhibition: 100%

## O=C(Nc1ccc(OC(F)(F)F)cc1)OC(c1ccc(C(F)(F)F)cc1)C1CCN(Cc2ccc(Oc3ccccn3)cc2)CC1 (stereo not drawn) [Compound 249]
  Percent Mortality: 100%
  Percent Growth Inhibition: 100%

## O=C(Nc1ccc(-c2ccccc2)cc1)OC(c1ccc(C(F)(F)F)cc1)C1CCN(Cc2ccc(Oc3ccccn3)cc2)CC1 (stereo not drawn) [Compound 250]
  Percent Mortality: 100%
  Percent Growth Inhibition: 100%

## CCn1nnc(-c2ccc(CN3CCC(C(OC(=O)Nc4ccccc4)c4ccc(OC(F)(F)F)cc4)CC3)cc2)n1 (stereo not drawn) [Compound 261]
  Percent Mortality: 100%
  Percent Growth Inhibition: 100%

## Cn1nnc(-c2ccc(CN3CCC(C(OC(=O)Nc4ccccc4Cl)c4ccc(OC(F)(F)F)cc4)CC3)cc2)n1 (stereo not drawn) [Compound 262]
  Percent Mortality: 100%
  Percent Growth Inhibition: 100%

## Cn1nnc(-c2ccc(CN3CCC(C(OC(=O)Nc4cccc(Cl)c4)c4ccc(OC(F)(F)F)cc4)CC3)cc2)n1 (stereo not drawn) [Compound 263]
  Percent Mortality: 100%
  Percent Growth Inhibition: 100%

## Cn1nnc(-c2ccc(CN3CCC(C(OC(=O)Nc4ccc(Cl)cc4)c4ccc(Cl)cc4)CC3)cc2)n1 (stereo not drawn) [Compound 264]
  Percent Mortality: 100%
  Percent Growth Inhibition: 100%

## CCn1nnc(-c2ccc(CN3CCC(C(OC(=O)Nc4ccc(Cl)cc4)c4ccc(C(F)(F)F)cc4)CC3)cc2)n1 (stereo not drawn) [Compound 265]
  Percent Mortality: 100%
  Percent Growth Inhibition: 100%

## Cn1nnc(-c2ccc(CN3CCC(C(OC(=O)Nc4ccc(Cl)cc4)c4ccc(OC(F)(F)F)cc4)CC3)cc2)n1 (stereo not drawn) [Compound 266]
  Percent Mortality: 100%
  Percent Growth Inhibition: 100%

## CCn1nnc(-c2ccc(CN3CCC(C(OC(=O)Nc4ccc(Cl)cc4)c4ccc(OC(F)(F)F)cc4)CC3)cc2)n1 (stereo not drawn) [Compound 267]
  Percent Mortality: 100%
  Percent Growth Inhibition: 100%

## CCn1nnc(-c2ccc(CN3CCC(C(OC(=O)Nc4cccc(Br)c4)c4ccc(C(F)(F)F)cc4)CC3)cc2)n1 (stereo not drawn) [Compound 268]
  Percent Mortality: 100%
  Percent Growth Inhibition: 100%

## CCn1nnc(-c2ccc(CN3CCC(C(OC(=O)Nc4ccc(Br)cc4)c4ccc(C(F)(F)F)cc4)CC3)cc2)n1 (stereo not drawn) [Compound 269]
  Percent Mortality: 100%
  Percent Growth Inhibition: 100%

## CCn1nnc(-c2ccc(CN3CCC(C(OC(=O)Nc4ccc(Br)cc4)c4ccc(OC(F)(F)F)cc4)CC3)cc2)n1 (stereo not drawn) [Compound 270]
  Percent Mortality: 100%
  Percent Growth Inhibition: 100%

## CCn1nnc(-c2ccc(CN3CCC(C(OC(=O)Nc4ccc(I)cc4)c4ccc(OC(F)(F)F)cc4)CC3)cc2)n1 (stereo not drawn) [Compound 271]
  Percent Mortality: 100%
  Percent Growth Inhibition: 100%

## Cn1nnc(-c2ccc(CN3CCC(C(OC(=O)Nc4ccccc4F)c4ccc(OC(F)(F)F)cc4)CC3)cc2)n1 (stereo not drawn) [Compound 272]
  Percent Mortality: 99%
  Percent Growth Inhibition: 100%

## Cn1nnc(-c2ccc(CN3CCC(C(OC(=O)Nc4cccc(F)c4)c4ccc(OC(F)(F)F)cc4)CC3)cc2)n1 (stereo not drawn) [Compound 273]
  Percent Mortality: 100%
  Percent Growth Inhibition: 100%

## Cn1nnc(-c2ccc(CN3CCC(C(OC(=O)Nc4ccc(F)cc4)c4ccc(Cl)cc4)CC3)cc2)n1 (stereo not drawn) [Compound 274]
  Percent Mortality: 100%
  Percent Growth Inhibition: 100%

## Cn1nnc(-c2ccc(CN3CCC(C(OC(=O)Nc4ccc(F)cc4)c4ccc(OC(F)(F)F)cc4)CC3)cc2)n1 (stereo not drawn) [Compound 275]
  Percent Mortality: 100%
  Percent Growth Inhibition: 100%

## CCn1nnc(-c2ccc(CN3CCC(C(OC(=O)Nc4ccc(F)cc4)c4ccc(OC(F)(F)F)cc4)CC3)cc2)n1 (stereo not drawn) [Compound 277]
  Percent Mortality: 100%
  Percent Growth Inhibition: 100%

## CCn1nnc(-c2ccc(CN3CCC(C(OC(=O)Nc4ccc(Cl)cc4Cl)c4ccc(C(F)(F)F)cc4)CC3)cc2)n1 (stereo not drawn) [Compound 280]
  Percent Mortality: 100%
  Percent Growth Inhibition: 100%

## CCn1nnc(-c2ccc(CN3CCC(C(OC(=O)Nc4cc(Cl)ccc4Cl)c4ccc(C(F)(F)F)cc4)CC3)cc2)n1 (stereo not drawn) [Compound 281]
  Percent Mortality: 100%
  Percent Growth Inhibition: 100%

## CCn1nnc(-c2ccc(CN3CCC(C(OC(=O)Nc4c(Cl)cccc4Cl)c4ccc(C(F)(F)F)cc4)CC3)cc2)n1 (stereo not drawn) [Compound 282]
  Percent Mortality: 0%
  Percent Growth Inhibition: 95%

## CCn1nnc(-c2ccc(CN3CCC(C(OC(=O)Nc4ccc(Cl)c(Cl)c4)c4ccc(C(F)(F)F)cc4)CC3)cc2)n1 (stereo not drawn) [Compound 283]
  Percent Mortality: 100%
  Percent Growth Inhibition: 100%

## CCn1nnc(-c2ccc(CN3CCC(C(OC(=O)Nc4cc(Cl)cc(Cl)c4)c4ccc(C(F)(F)F)cc4)CC3)cc2)n1 (stereo not drawn) [Compound 284]
  Percent Mortality: 100%
  Percent Growth Inhibition: 100%

## CCn1nnc(-c2ccc(CN3CCC(C(OC(=O)Nc4ccc(C)cc4)c4ccc(OC(F)(F)F)cc4)CC3)cc2)n1 (stereo not drawn) [Compound 285]
  Percent Mortality: 100%
  Percent Growth Inhibition: 100%

## CCn1nnc(-c2ccc(CN3CCC(C(OC(=O)Nc4ccc(C(C)C)cc4)c4ccc(OC(F)(F)F)cc4)CC3)cc2)n1 (stereo not drawn) [Compound 286]
  Percent Mortality: 50%
  Percent Growth Inhibition: 94%

## CCn1nnc(-c2ccc(CN3CCC(C(OC(=O)Nc4cccc(C(F)(F)F)c4)c4ccc(C(F)(F)F)cc4)CC3)cc2)n1 (stereo not drawn) [Compound 288]
  Percent Mortality: 100%
  Percent Growth Inhibition: 100%

Source: patent US7300946B2, “N-(substituted arylmethyl)-4-(disubstituted methyl) piperidines and pyridines” (Bayer CropScience AG, priority 2002, dated 2007)
